For orientation: TGI means the concentration giving total growth inhibition. The GI50 is the concentration giving 50% growth inhibition.

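Where inhibition never reached the appropriate level, the endpoint shown equals the highest concentration tested. Otherwise, values were interpolated linearly from a five-concentration, 48-hour dose response in 96-well plates. GI50 = concentration required for 50% inhibition of growth. TGI: concentration producing complete growth inhibition.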

Data on 16 compounds can be found in PubChem BioAssay (NCI).

Common to all, as to assay: DTP human tumour cell line panel, 48 h
In assay [1] the test system is SW-620 colon.
In assay [2] the test system is SNB-19 CNS.
Assay [3] relates to HCC-2998 colon.
Assay [4] deals with UACC-62 melanoma.
The test system of assay [5] is A549 NSCLC.
The subject of assay [6] is SNB-75 CNS.
In assay [7] the test system is COLO 205 colon.
In assay [8] the test system is CAKI-1 renal.
The subject of assay [9] is DU-145 prostate.

As to `N/C(=C\c1ccc(OCc2ccccc2)c(OCc2ccccc2)c1[N+](=O)[O-])C(=O)O`, the TGI in [1], in assay [2], in assay [3], in assay [4], in assay [5] and in assay [6] was greater than 100 µM in each case. For the same compound, in [7], the TGI is greater than 100 µM.
Regarding `Cc1ccccc1C(=O)c1ccccc1O`, the TGI in assay [1], in assay [2], in assay [8], in assay [3], in assay [4] and in [5] was greater than 100 µM throughout. The TGI in [6] and in assay [7] was greater than 100 µM throughout.
On to `CCC1(c2c(F)c(F)c(N)c(F)c2F)CCC(=O)NC1=O` (centres undefined), for which the TGI in assay [1], in assay [2], in [8], in assay [3], in assay [4] and in assay [5] was greater than 100 µM in each case. Also, the TGI in [6] and in [7] was greater than 100 µM each time.
Regarding `C[S+](C)CCOC(=O)C(=[N+]=[N-])c1ccc([N+](=O)[O-])cc1`, the total growth inhibition concentration (TGI) in assay [1], in assay [2], in assay [8], in assay [3], in [4] and in [5] was greater than 100 µM each time. The TGI in assay [6] and in assay [7] was greater than 100 µM throughout.
With `CC1(CO)OC(n2cc(C(=O)NC(=O)OCc3ccccc3)c(=O)[nH]c2=O)CC1O` (centres undefined), the TGI in assay [1], in assay [2], in [8], in assay [4], in assay [5] and in assay [6] was greater than 100 µM throughout. The compound also displayed a concentration for total growth inhibition (TGI) in assay [7] greater than 100 µM.
In the case of `N#Cc1c(NN)nc(NN)c(C#N)c1-c1ccccc1`, the TGI in [1], in [2], in assay [8], in assay [3], in assay [4] and in assay [5] was greater than 100 µM each time. Moreover, the total growth inhibition concentration (TGI) in [6] and in assay [7] was greater than 100 µM throughout.
On to `Cc1ccc(/C=C2/SC(Nc3nc(-c4csc(NC5=NC(=O)/C(=C\c6ccc(C)cc6)S5)n4)cs3)=NC2=O)cc1`, for which the GI50 was 12.6 µM in assay [2]; 9.28 µM in assay [9]; 11.1 µM in assay [8]; 7.23 µM in assay [3]; 1.95 µM in assay [4]; 7 µM in assay [5]. Besides, in assay [7], the GI50 was 20.2 µM. Further, the TGI in assay [2] was greater than 50 µM; in assay [9], greater than 50 µM; in assay [8], greater than 50 µM; in assay [3], 27.7 µM; in [4], 13.6 µM; in assay [5], 47.6 µM. Also, the TGI in assay [7] was greater than 50 µM.
For the compound `CCCCCCCCCCCCCC(=O)CC(=O)c1c(O)cccc1O`, the TGI in [1] is 50.2 µM; in [2], 99.2 µM; in [8] it was 76.1 µM; in assay [3] it was greater than 100 µM; in [4], greater than 100 µM; in assay [5], greater than 100 µM. In addition, the TGI was greater than 100 µM in assay [6] and 55.1 µM in [7].
Consider `Cn1c(=O)nc2n(-c3cccc(Br)c3)c3ccccc3nc-2c1=O`, for which the TGI worked out at 8.53 µM in assay [1]; 6.86 µM in assay [2]; 32.7 µM in assay [8]; 9.59 µM in assay [3]; 3.27 µM in assay [4]; 14.5 µM in assay [5]. Besides, the TGI in assay [6] came out at 22.2 µM; in assay [7], 9.64 µM.
Regarding `CC1(c2cccc3ccccc23)OC(=O)c2ccccc21` (centres undefined), the TGI in assay [1] was 68.2 µM; in assay [2], greater than 100 µM; in assay [8], 51 µM; in [3] it was 35.6 µM; in [4], 25.6 µM; in [5] it was 49.7 µM. Moreover, the values for the TGI in assay [6] and in assay [7] were 46 µM and 29.8 µM, respectively.
Consider `COC(=O)C(=O)OC1(C(C)=O)CC2(c3ccccc3)OC1(c1ccccc1)c1ccccc12` (centres undefined), for which the TGI in assay [1] turned out to be 30.3 µM; in assay [2], 47.3 µM; in assay [8], 39.9 µM; in [3], 31.4 µM; in assay [4], 28.1 µM; in assay [5], 31.3 µM. Moreover, the TGI amounted to 61.5 µM in assay [6] and 29.5 µM in assay [7].
For `Oc1ccccc1C=NCc1ccco1`, the concentration for total growth inhibition (TGI) in assay [1], in [2], in [4], in assay [5] and in assay [6] was greater than 100 µM each time.
`O=C(CC1(O)C(=O)Nc2c(Cl)ccc(Cl)c21)c1ccc2ccccc2c1` (centres undefined): the TGI was 12.5 µM in [1]; 53 µM in assay [2]; 16.5 µM in assay [8]; 35.6 µM in assay [3]; 10.7 µM in assay [4]; 39.6 µM in assay [5]. The TGI was determined as 54 µM in assay [6] and 28.7 µM in assay [7].
As to `CCOc1ccccc1NC(=O)CC1SC(=Nc2ccc([N+](=O)[O-])cc2)NC1=O` (centres undefined), the TGI is 52.7 µM in assay [1]; greater than 100 µM in assay [2]; 36.7 µM in assay [3]; 39.9 µM in assay [4]; 38.9 µM in assay [5]; 74.2 µM in [6]. The compound also gave a TGI in assay [7] of 35.1 µM.
Regarding `O=C1NC(=O)C2C(=O)NC(=O)C1C2(c1ccccc1)c1cc[nH]c1` (centres undefined), the TGI in assay [1], in assay [2], in assay [8], in assay [3], in assay [4] and in assay [5] was greater than 100 µM each time. Also, the TGI in assay [6] and in assay [7] was greater than 100 µM throughout.
On to `O=NNc1ccc(S(=O)(=O)c2ccccc2)cn1`, for which the TGI in assay [1], in [2], in assay [9], in assay [8], in assay [3] and in [4] was greater than 100 µM each time. The TGI in assay [5], in assay [6] and in assay [7] was greater than 100 µM each time.
